Data from patent US11629171B2, “Beta-hairpin peptidomimetics” (POLYPHOR AG, priority 2017, dated 2023).
Converted amounts (≈) assume the structure as drawn. Where a SMILES comes first, the peptide text is derived from it. Bridges are numbered along the chain shown (N, C = ends). Roman numbers before positions name the chains, in order. [ ]: non-standard residue; d: D form. The star is where a group is joined. Tle = CC(C)(C)[C@H](N)C(=O)O; Hiv = CC(C)[C@H](O)C(=O)O; dDab = NCC[C@@H](N)C(=O)O; hSer = N[C@@H](CCO)C(=O)O; NHCH(CH2OH)2 = OCC(CO)N*; Dab = NCC[C@H](N)C(=O)O; Abu = CC[C@H](N)C(=O)O; Dap = NC[C@H](N)C(=O)O

Legend:
[1] = system: male ICR mice; assay: Tolerability in a mouse model (Maximum Tolerated Dose assay); assay type: in vivo; settings: 2 × 30 mg/kg s.c. at a 12-hr interval, groups of 3
Method: The tolerability of the peptides was tested in a mouse model at Pharmacology Discovery Services Taiwan Ltd, Taipei, Taiwan. The peptides were administered subcutaneously (s.c.) at 30 mg/kg or 40 mg/kg, respectively; twice at a 12-hr interval, for assessment of possible adverse effects in the Maximum Tolerated Dose (MTD) assay in male ICR (Institute of Cancer Research) mice. The peptides were dissolved in 0.9% NaCl at the concentrations either of 6 or 8 mg/mL, respectively, based on the free base molecular weight. The pH values of dosing solutions were adjusted to 6.5-7.6 before s.c. administration. A dosing volume at 5 mL/kg and a concentration of 6 or 8 mg/mL, respectively, was applied. The fresh prepared stock solution were stored at 4° C. during the study. Male ICR mice weighing 23±3 g were provided by BioLasco Taiwan (under Charles River Laboratories Licensee). Animals were acclimated for 3 days prior to use and were confirmed to be in good health. The peptides were administered s.c. at 30 mg/kg or 40 mg/kg, respectively, twice at a 12-hr interval, to groups of 3 ICR male mice and observed for the presence of acute toxic symptoms (mortality, convulsions, tremors, muscle relaxation, sedation, etc.) and autonomic effects (diarrhea, salivation, lacrimation, vasodilation, piloerection, etc.) during the first 30 min. The peptides were administered again at a 12-hr (two total doses) interval, following the first dose. The animals were then observed again for the presence of acute toxic symptoms and autonomic effects during the first 30 min.

[2] = system: human red blood cells (hRBC); assay: Hemolysis; assay type: cell-based; settings: red cells of human, 1 h, 200
Method in brief: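 Washed fresh hRBC (20% v/v) were incubated with peptides at 200 μg/mL for 1 h at 37° C with shaking at 300 rpm. Supernatant OD540 was read after centrifugation and dilution, blank-corrected, and expressed as percent of the 2% Triton X-100 (100% lysis) control; PBS with 10% water gave 0%.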

[3] = system: Escherichia coli ATCC 25922; assay type: cell-based; settings: ATCC 25922
Method in brief: (§1)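 CLSI broth microdilution: inoculum ~10^6 CFU/mL in cation-adjusted Mueller-Hinton II broth, with peptide in serial two-fold dilutions plus Polysorbate 80 (0.002% final). MIC (μg/mL) is the lowest concentration without visible growth after 18-20 hours at 35° C.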

[4] = system: Pseudomonas aeruginosa ATCC 27853; assay type: cell-based; settings: ATCC 27853
Method in brief: as §1

[5] = system: Acinetobacter baumannii 872842; assay type: cell-based; settings: 872842
Method in brief: as §1

[6] = system: Klebsiella pneumoniae 968733; assay type: cell-based; settings: 968733
Method in brief: as §1

[7] = system: Acinetobacter baumannii DSM 30008; assay type: cell-based; settings: DSM 30008
Method in brief: as §1

[8] = system: Enterobacter cloacae 848840; assay type: cell-based; settings: 848840
Method in brief: as §1

[9] = system: Klebsiella pneumoniae SSI #3010; assay type: cell-based; settings: SSI #3010
Method in brief: as §1

[10] = system: Escherichia coli 926415; assay type: cell-based; settings: 926415
Method in brief: as §1

Row | SMILES | Mortality and dose [1] | Hemolysis at 200 μg/mL [2] [%] | MIC [3] [µg/mL] | MIC [4] [µg/mL] | MIC [5] [µg/mL] | MIC [6] [µg/mL] | MIC [7] [µg/mL] | MIC [8] [µg/mL] | MIC [9] [µg/mL] | MIC [10] [µg/mL]
1 | CC(=O)N[C@@H](Cc1ccc(O)cc1)C(=O)N[C@H]1CSSC[C@@H](C(=O)NC(CO)CO)NC(=O)[C@H](C(C)(C)C)NC(=O)[C@H](CO)NC(=O)[C@H](Cc2c[nH]c3ccccc23)NC(=O)[C@H](CCO)NC(=O)[C@@H](CCN)NC(=O)[C@H](CCC(=O)N[C@@H](CCN)C(=O)N[C@H](C(=O)N[C@@H](CCN)C(=O)N[C@H]2CCNC(=O)[C@H]([C@@H](C)O)NC(=O)[C@H](CCN)NC(=O)[C@H](CCN)NC(=O)[C@H](CC(C)C)NC(=O)[C@@H](CC(C)C)NC(=O)[C@H](CCN)NC2=O)[C@@H](C)O)NC(=O)[C@H](CCN)NC(=O)[C@H](C(C)C)NC1=O [Ex. 96] (I: Ac-YCV[Dab]E[dDab][hSer]WS[Tle]C-{NHCH(CH2OH)2} / II: [Dab]T[Dab][Dab][Dab][dL]L[Dab][Dab]T; disulfide I:2-I:11; amide I:5-II:N; lactam II:4-II:C) | 0/3 died at 2 × 30 mg/kg | <1 | 0.0625 (≈ 0.0257 µM) | 0.125 (≈ 0.0515 µM) | 0.5 (≈ 0.206 µM) | 0.125 (≈ 0.0515 µM) | 0.125 (≈ 0.0515 µM) | 8 (≈ 3.3 µM) | 0.125 (≈ 0.0515 µM) | 0.5 (≈ 0.206 µM)
2 | CC(=O)N[C@H](C(=O)N[C@H]1CSSC[C@@H](C(=O)N[C@@H](CO)C(N)=O)NC(=O)[C@H](C(C)(C)C)NC(=O)[C@H](CO)NC(=O)[C@H](Cc2c[nH]c3ccccc23)NC(=O)[C@H](CO)NC(=O)[C@@H](CCN)NC(=O)[C@H](CCC(=O)N[C@@H](CCN)C(=O)N[C@H](C(=O)N[C@@H](CN)C(=O)N[C@H]2CCNC(=O)[C@H]([C@@H](C)O)NC(=O)[C@H](CCN)NC(=O)[C@H](CCN)NC(=O)[C@H](CC(C)C)NC(=O)[C@@H](CC(C)C)NC(=O)[C@H](CCN)NC2=O)[C@@H](C)O)NC(=O)[C@H](CCN)NC(=O)[C@H](Cc2ccc(O)cc2)NC1=O)C(C)C [Ex. 114] (I: Ac-VCY[Dab]E[dDab]SWS[Tle]CS-NH2 / II: [Dab]T[Dap][Dab][Dab][dL]L[Dab][Dab]T; disulfide I:2-I:11; amide I:5-II:N; lactam II:4-II:C) | 0/3 died at 2 × 30 mg/kg | <1 | 0.03125 (≈ 0.013 µM) | 0.125 (≈ 0.0518 µM) | 0.03125 (≈ 0.013 µM) | 0.0625 (≈ 0.0259 µM) | 0.0625 (≈ 0.0259 µM) | 0.0625 (≈ 0.0259 µM) | 0.0625 (≈ 0.0259 µM) | 0.0625 (≈ 0.0259 µM)
3 | CC(C)C[C@@H]1NC(=O)[C@@H](CC(C)C)NC(=O)[C@H](CCN)NC(=O)[C@@H](NC(=O)[C@H](CN)NC(=O)[C@@H](NC(=O)[C@H](CCN)NC(=O)CC[C@@H]2NC(=O)[C@H](CCN)NC(=O)[C@H](Cc3ccc(O)cc3)NC(=O)[C@@H](NC(=O)[C@@H](O)C(C)C)CSSC[C@@H](C(=O)N[C@@H](CO)C(N)=O)NC(=O)[C@H](C(C)C)NC(=O)[C@H](CO)NC(=O)[C@H](Cc3c[nH]c4ccccc34)NC(=O)[C@H](CO)NC(=O)[C@@H](CCN)NC2=O)[C@@H](C)O)CCNC(=O)[C@H]([C@@H](C)O)NC(=O)[C@H](CCN)NC(=O)[C@H](CCN)NC1=O [Ex. 115] (I: H-[Hiv]CY[Dab]E[dDab]SWSVCS-NH2 / II: [Dab]T[Dap][Dab][Dab][dL]L[Dab][Dab]T; disulfide I:2-I:11; amide I:5-II:N; lactam II:4-II:C) | 0/3 died at 2 × 30 mg/kg | <1 | 0.0625 (≈ 0.0265 µM) | 0.125 (≈ 0.053 µM) | 0.125 (≈ 0.053 µM) | 0.25 (≈ 0.106 µM) | 0.0625 (≈ 0.0265 µM) | 0.0625 (≈ 0.0265 µM) | 0.0625 (≈ 0.0265 µM) | 0.125 (≈ 0.053 µM)
4 | CC(=O)N[C@H](C(=O)N[C@H]1CSSC[C@@H](C(=O)NC(CO)CO)NC(=O)[C@H](C(C)C)NC(=O)[C@H](CO)NC(=O)[C@H](Cc2c[nH]c3ccccc23)NC(=O)[C@H](CO)NC(=O)[C@@H](CCN)NC(=O)[C@H](CCC(=O)N[C@@H](CCN)C(=O)N[C@H](C(=O)N[C@@H](CN)C(=O)N[C@H]2CCNC(=O)[C@H]([C@@H](C)O)NC(=O)[C@H](CCN)NC(=O)[C@H](CCN)NC(=O)[C@H](CC(C)C)NC(=O)[C@@H](CC(C)C)NC(=O)[C@H](CCN)NC2=O)[C@@H](C)O)NC(=O)[C@H](CCN)NC(=O)[C@H](Cc2ccc(O)cc2)NC1=O)C(C)C [Ex. 116] (I: Ac-VCY[Dab]E[dDab]SWSVC-{NHCH(CH2OH)2} / II: [Dab]T[Dap][Dab][Dab][dL]L[Dab][Dab]T; disulfide I:2-I:11; amide I:5-II:N; lactam II:4-II:C) | 0/3 died at 2 × 30 mg/kg | <1 | 0.03125 (≈ 0.0131 µM) | 0.125 (≈ 0.0524 µM) | 0.0625 (≈ 0.0262 µM) | 0.25 (≈ 0.105 µM) | 0.03125 (≈ 0.0131 µM) | 0.03125 (≈ 0.0131 µM) | 0.03125 (≈ 0.0131 µM) | 0.125 (≈ 0.0524 µM)
5 | CC[C@@H]1NC(=O)[C@@H](CC(C)C)NC(=O)[C@H](CCN)NC(=O)[C@@H](NC(=O)[C@H](CN)NC(=O)[C@@H](NC(=O)[C@H](CCN)NC(=O)CC[C@@H]2NC(=O)[C@H](CCN)NC(=O)[C@H](Cc3ccc(O)cc3)NC(=O)[C@@H](NC(=O)[C@@H](NC(C)=O)C(C)C)CSSC[C@@H](C(=O)N[C@@H](CO)C(N)=O)NC(=O)[C@H](C(C)C)NC(=O)[C@H](CO)NC(=O)[C@H](Cc3c[nH]c4ccccc34)NC(=O)[C@H](CO)NC(=O)[C@@H](CCN)NC2=O)[C@@H](C)O)CCNC(=O)[C@H]([C@@H](C)O)NC(=O)[C@H](CCN)NC(=O)[C@H](CCN)NC1=O [Ex. 137] (I: Ac-VCY[Dab]E[dDab]SWSVCS-NH2 / II: [Dab]T[Dap][Dab][Dab][dL][Abu][Dab][Dab]T; disulfide I:2-I:11; amide I:5-II:N; lactam II:4-II:C) | 0/3 died at 2 × 30 mg/kg | 1 | 0.03125 (≈ 0.0132 µM) | 0.125 (≈ 0.0527 µM) | 0.125 (≈ 0.0527 µM) | 0.125 (≈ 0.0527 µM) | 0.0625 (≈ 0.0264 µM) | 0.0625 (≈ 0.0264 µM) | 0.0625 (≈ 0.0264 µM) | 0.125 (≈ 0.0527 µM)
6 | CC(=O)N[C@H](C(=O)N[C@H]1CSSC[C@@H](C(=O)N[C@@H](CO)C(N)=O)NC(=O)[C@H](C(C)C)NC(=O)[C@H](CCC(=O)O)NC(=O)[C@H](Cc2c[nH]c3ccccc23)NC(=O)[C@H](CO)NC(=O)[C@@H](CCN)NC(=O)[C@H](CCC(=O)N[C@@H](CCN)C(=O)N[C@H](C(=O)N[C@@H](CN)C(=O)N[C@H]2CCNC(=O)[C@H]([C@@H](C)O)NC(=O)[C@H](CCN)NC(=O)[C@H](CCN)NC(=O)[C@H](CC(C)C)NC(=O)[C@@H](CC(C)C)NC(=O)[C@H](CCN)NC2=O)[C@@H](C)O)NC(=O)[C@H](CCN)NC(=O)[C@H](Cc2ccc(O)cc2)NC1=O)C(C)C [Ex. 150] (I: Ac-VCY[Dab]E[dDab]SWEVCS-NH2 / II: [Dab]T[Dap][Dab][Dab][dL]L[Dab][Dab]T; disulfide I:2-I:11; amide I:5-II:N; lactam II:4-II:C) | 0/3 died at 2 × 30 mg/kg | <1 | 0.03125 (≈ 0.0128 µM) | 0.125 (≈ 0.0512 µM) | 0.125 (≈ 0.0512 µM) | 0.5 (≈ 0.205 µM) | 0.0625 (≈ 0.0256 µM) | 0.125 (≈ 0.0512 µM) | 0.125 (≈ 0.0512 µM) | 0.25 (≈ 0.102 µM)
